# Data as given in patent publication US20190241822A1, “COMPOSITION FOR REMOVING IRON SULFIDE” (KURARAY CO., LTD., priority 2016, published 2019).
# Where two headings read alike, the source gives them in different places.
# How the values were obtained:
# [1] = upper respiratory tract; cited from earlier work
# [2] = assay type: physicochemical; conditions: 50° C., nitrogen atmosphere; for content ratio, 2 hours elapsed / content ratio, 4 hours elapsed / content ratio, 6 hours elapsed / content ratio, 10 hours elapsed: GC with internal standard; for content ratio, 0 hour: content immediately after temperature rise defined as 100%
# Procedure: 50 mL of each of SAL and acrolein was charged in three-necked flask, and the contents were subjected to temperature rise to 50° C. in a nitrogen atmosphere. On the occasion when the content of each of SAL and acrolein immediately after the temperature rise was defined as 100%, a change of the content ratio was observed according to the calibration curve method by means of gas chromatography with an internal standard.
# Analysis instrument: GC-14A (available from Shimadzu Corporation) Detector: FID (hydrogen flame ionization detector)
# Column used: DB-1701 (length: 50 m, film thickness: 1 pn, inner diameter: 0.32 mm) (available from Agilent Technologies)
# Analysis conditions: Injection temperature: 250° C., detection temperature: 250° C.
# Temperature rise conditions: 70° C.→(temperature rise at 5° C./min)→250° C.
# Internal standard substance: Diglyme (diethylene glycol dimethyl ether)
# [3] = assay type: physicochemical; conditions: pH 1.7
# Procedure: Each of SAL and acrolein was dissolved in 0.5 mol/L of phosphoric acid buffer solutions having a pH different from each other, thereby preparing 0.1 wt % solutions. 50 mL of each of the solutions was charged in a sample vial in a nitrogen atmosphere and stored at 23±2° C. On the occasion when the content of each of SAL and acrolein at the time of preparation was defined as 100%, a change of the content ratio was observed according to the absolute calibration curve by means of high-performance liquid chromatography analysis.
# pH 1.7: 4.9 g of 75% phosphoric acid and 7.8 g of sodium dihydrogen phosphate dihydrate were dissolved in 200 mL of distilled water.
# pH 6.2: 7.8 g of sodium dihydrogen phosphate dihydrate and 7.1 g of disodium hydrogen phosphate were dissolved in 200 mL of distilled water.
# pH 8.1: 0.3 g of sodium dihydrogen phosphate dihydrate and 13.9 g of disodium hydrogen phosphate were dissolved in 200 mL of distilled water.
# Analysis instrument: Prominence System (available from Shimadzu Corporation)
# Column used: Cadenza CD-C18 (length: […], inner diameter: 4.6 mm)
# Developing solution: H2O/MeOH=45/55 (volume ratio), H3PO4=1 mol/L
# [4] = Removal test of iron sulfide; conditions: for time elapsed until iron sulfide was dissolved and the reaction solution became colorless transparent: 1.5 mmol aldehyde, 0.5 mmol iron sulfide in 500 mL water, 50° C., 500 rpm
# Rat = conditions: cited from earlier work
Structure (SMILES),GHS Classification (under Permissible Exposure Limit) [1],"content ratio, 2 hours elapsed [2] [%]","content ratio, 4 hours elapsed [2] [%]","content ratio, 6 hours elapsed [2] [%]","content ratio, 10 hours elapsed [2] [%]","content ratio, 0 hour [2] [%]",pH stability as compared with acrolein [3],time elapsed until iron sulfide was dissolved and the reaction solution became colorless transparent [4] [h],iron sulfide removal ability ([4]; compared with acrolein),"Acute toxicity, Rat LD50 (Rat; rat, in vivo)",ratio lost after elapsing 10 hours ([2]; acrolein contained hydroquinone as a stabilizer) [%],"Acute toxicity, Rat LD50 (Rat; Rat)"
"CC(C)=CC=O [SAL, 3-methyl-2-butenal]",GHS Classification; Section 1 (upper,100.0,100.0,100.0,99.9,100.0,extremely high in the pH stability as compared with acrolein,4,equivalent to acrolein,Rat LD50: 690 mg/kg,,
"C=CC=O [Acrolein, acrolein, reference compound]",,99.5,98.3,98.1,96.6,100.0,,4,,,3.4,Rat LD50: 42 mg/kg
"CC(C)=CCCC(C)=CC=O [Citral, 3,7-dimethyl-2,6-octadienal]",,,,,,,,7,,,,
